Experimental data published in patent publication US10233188B2, “CDK2/4/6 inhibitors” (priority 2016, dated 2019).

Columns and labels:
CDK2/Cyclin E1 = CDK2/Cyclin E1 (Homo sapiens (Human), UniProt P24941); test: biochemical; conditions: CDK2_Ki (nM), phosphorylated CDK2/Cyclin E1, 150 μM ATP, Morrison tight-binding fit
Experimental: The assay was initiated with the addition of ATP, following a fifteen minutes pre-incubation of enzyme and inhibitor at room temperature in the reaction mixture. The reaction was stopped after 45 minutes at room temperature by the addition of 50 μL of 80 mM EDTA, pH 7.5.

CDK6/Cyclin D1 = CDK6/Cyclin D1 (Homo sapiens (Human), UniProt Q00534); test: biochemical; conditions: CDK6_Ki (nM), non-phosphorylated CDK6/Cyclin D1, 2 mM ATP, Morrison fit
Sequence of CDK6/Cyclin D1 (Q00534 whole entry): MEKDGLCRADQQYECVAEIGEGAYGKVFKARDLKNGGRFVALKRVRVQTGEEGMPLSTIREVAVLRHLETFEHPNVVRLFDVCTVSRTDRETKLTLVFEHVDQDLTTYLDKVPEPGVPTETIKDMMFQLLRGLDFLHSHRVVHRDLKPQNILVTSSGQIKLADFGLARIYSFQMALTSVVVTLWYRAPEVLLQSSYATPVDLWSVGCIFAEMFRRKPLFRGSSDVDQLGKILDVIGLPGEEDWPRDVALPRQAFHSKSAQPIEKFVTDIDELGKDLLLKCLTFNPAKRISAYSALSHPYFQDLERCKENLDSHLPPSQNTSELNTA
Sequence of CDK6/Cyclin D1 (P24385 whole entry partner): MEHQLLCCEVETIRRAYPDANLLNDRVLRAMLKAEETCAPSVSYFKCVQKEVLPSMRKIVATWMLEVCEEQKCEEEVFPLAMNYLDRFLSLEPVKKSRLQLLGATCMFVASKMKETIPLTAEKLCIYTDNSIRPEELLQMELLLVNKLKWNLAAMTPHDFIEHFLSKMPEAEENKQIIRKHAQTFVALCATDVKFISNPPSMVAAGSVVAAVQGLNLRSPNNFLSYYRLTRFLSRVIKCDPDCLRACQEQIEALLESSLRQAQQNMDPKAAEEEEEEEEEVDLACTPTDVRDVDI

SMILES | Ki (CDK2/Cyclin E1) [nM] | Ki (CDK6/Cyclin D1) [nM]
Cc1cc2cnc(NC3CCN(S(=O)(=O)C(F)(F)F)CC3)nc2n([C@H]2CCC[C@]2(C)O)c1=O (single isomer, unassigned) [Example 182, (+)-8-[(1R*,2R*)-2-hydroxy-2-methylcyclopentyl]-6-methyl-2-({1-[(trifluoromethyl)sulfonyl]piperidin-4-yl}amino)pyrido[2,3-d]pyrimidin-7(8H)-one] | 12.6 | 9.5
C[C@@H]1[C@H](O)CC[C@H]1n1c(=O)c(C(F)F)cc2cnc(NC3CCN(S(C)(=O)=O)CC3)nc21 (single isomer, unassigned) [Example 204, (−)-6-(difluoromethyl)-8-[(1R*,2S*,3R*)-3-hydroxy-2-methylcyclopentyl]-2-{[1-(methylsulfonyl)piperidin-4-yl]amino}pyrido[2,3-d]pyrimidin-7(8H)-one] | 0.51 | 0.18
CS(=O)(=O)N1CCC(Nc2ncc3cc(C(F)(F)C(=O)O)c(=O)n(C4CCCC4)c3n2)CC1 [Example 31, (8-cyclopentyl-2-{[1-(methylsulfonyl)piperidin-4-yl]amino}-7-oxo-7,8-dihydropyrido[2,3-d]pyrimidin-6-yl)(difluoro)acetic acid] | 2.43 | 0.87
CC[C@@]1(O)CCC[C@H]1n1c(=O)c(Cl)cc2cnc(NC3CCN(S(C)(=O)=O)CC3)nc21 (single isomer, unassigned) [Example 195, (−)-6-chloro-8-[(1R*,2R*)-2-ethyl-2-hydroxycyclopentyl]-2-{[1-(methylsulfonyl)piperidin-4-yl]amino}pyrido[2,3-d]pyrimidin-7(8H)-one] | 5.49 | 4.68
Cc1cc2cnc(NC3CCN(S(C)(=O)=O)CC3)nc2n([C@H]2CC[C@H](O)C2)c1=O (single isomer, unassigned) [Example 168, (+)-8-[(1R*,3R*)-3-hydroxycyclopentyl]-6-methyl-2-{[1-(methylsulfonyl)piperidin-4-yl]amino}pyrido[2,3-d]pyrimidin-7(8H)-one] | 1.31 | 1.34
C[C@@]1(O)CCC[C@H]1n1c(=O)c(Cl)cc2cnc(N[C@@H]3CCN(S(C)(=O)=O)C[C@@H]3F)nc21 (single isomer, unassigned) [Example 192, (+)-6-chloro-2-{[(3R*,4S*)-3-fluoro-1-(methylsulfonyl)piperidin-4-yl]amino}-8-[(1R,2R)-2-hydroxy-2-methylcyclopentyl]pyrido[2,3-d]pyrimidin-7(8H)-one] | 20.9 | 10.1
CNS(=O)(=O)N1CCC(Nc2ncc3ccc(=O)n([C@H]4C[C@H](O)CC[C@@H]4F)c3n2)CC1 (single isomer, unassigned) [Example 219, (+)-4-({8-[(1S*,2S*,5R*)-2-fluoro-5-hydroxycyclohexyl]-7-oxo-7,8-dihydropyrido[2,3-d]pyrimidin-2-yl}amino)-N-methylpiperidine-1-sulfonamide] | 0.78 | 3.9
CS(=O)(=O)N1CCC(Nc2ncc3ccc(=O)n([C@@H]4C[C@@H](O)CC[C@H]4F)c3n2)CC1 (single isomer, unassigned) [Example 218, (−)-8-[(1S*,2S*,5R*)-2-fluoro-5-hydroxycyclohexyl]-2-{[1-(methylsulfonyl)piperidin-4-yl]amino}pyrido[2,3-d]pyrimidin-7(8H)-one] | 6.28 | 14.3
C[C@]1(O)CCC[C@@H]1n1c(=O)c(CC(N)=O)cc2cnc(NC3CCN(S(C)(=O)=O)CC3)nc21 (single isomer, unassigned) [Example 180, (+)-2-(8-[(1R*,2R*)-2-hydroxy-2-methylcyclopentyl]-2-{[1-(methylsulfonyl)piperidin-4-yl]amino}-7-oxo-7,8-dihydropyrido[2,3-d]pyrimidin-6-yl)acetamide] | 3.76 | 28.9
Cc1cc2cnc(NC3CCN(S(=O)(=O)C4CCS(=O)(=O)C4)CC3)nc2n([C@@H]2CCC[C@@]2(C)O)c1=O (single isomer, unassigned; isomer d) [Example 109, (−)-2-[(1-{[(3ξ)-1,1-dioxidotetrahydrothiophen-3-yl]sulfonyl}piperidin-4-yl)amino]-8-[(1R*,2R*)-2-hydroxy-2-methylcyclopentyl]-6-methylpyrido[2,3-d]pyrimidin-7(8H)-one-Isomer D] | 0.14 | 0.19
COCCS(=O)(=O)N1CCC(Nc2ncc3cc(C)c(=O)n([C@H]4CCC[C@]4(C)O)c3n2)CC1 (single isomer, unassigned) [Example 115, (+)-8-[(1R*,2R*)-2-hydroxy-2-methylcyclopentyl]-2-({1-[(2-methoxyethyl)sulfonyl]piperidin-4-yl}amino)-6-methylpyrido[2,3-d]pyrimidin-7(8H)-one] | 2.39 | 3.17
Cn1cnc(S(=O)(=O)N2CCC(Nc3ncc4ccc(=O)n([C@@H]5CCC[C@@]5(C)O)c4n3)CC2)c1 (single isomer, unassigned) [Example 84, (−)-8-[(1R*,2R*)-2-hydroxy-2-methylcyclopentyl]-2-({1-[(1-methyl-1H-imidazol-4-yl)sulfonyl]piperidin-4-yl}amino)pyrido[2,3-d]pyrimidin-7(8H)-one] | 0.08 | 0.92
Cc1cc2cnc(NC3CCN(S(=O)(=O)C4CCS(=O)(=O)C4)CC3)nc2n([C@@H]2CCC[C@@]2(C)O)c1=O (single isomer, unassigned; isomer a) [Example 106, (−)-2-[(1-{[(3ξ)-1,1-dioxidotetrahydrothiophen-3-yl]sulfonyl}piperidin-4-yl)amino]-8-[(1R*,2R*)-2-hydroxy-2-methylcyclopentyl]-6-methylpyrido[2,3-d]pyrimidin-7(8H)-one-Isomer A] | 0.16 | 0.11
CNS(=O)(=O)N1CCC(Nc2ncc3ccc(=O)n(C4CCCCCC4)c3n2)CC1 [Example 20, 4-[(8-cycloheptyl-7-oxo-7,8-dihydropyrido[2,3-d]pyrimidin-2-yl)amino]-N-methylpiperidine-1-sulfonamide] | 0.42 | 1.95
CC1CCC[C@@H]1n1c(=O)c(CC(N)=O)cc2cnc(NC3CCN(S(C)(=O)=O)CC3)nc21 (stereo in doubt) [Example 166, 2-(8-[(1S,2S)-2-methylcyclopentyl]-2-{[1-(methylsulfonyl)piperidin-4-yl]amino}-7-oxo-7,8-dihydropyrido[2,3-d]pyrimidin-6-yl)acetamide] | 2.23 | 6.71
COCCS(=O)(=O)N1CCC(Nc2ncc3cc(C)c(=O)n([C@@H]4CCC[C@@]4(C)O)c3n2)CC1 (single isomer, unassigned) [Example 114, (−)-8-[(1R*,2R*)-2-hydroxy-2-methylcyclopentyl]-2-({1-[(2-methoxyethyl)sulfonyl]piperidin-4-yl}amino)-6-methylpyrido[2,3-d]pyrimidin-7(8H)-one] | 0.17 | 0.15
C[C@@H]1[C@H](O)CCC[C@H]1n1c(=O)ccc2cnc(NC3CCN(S(C)(=O)=O)CC3)nc21 (single isomer, unassigned) [Example 221, (−)-8-[(1S*,2R*,3S*)-3-hydroxy-2-methylcyclohexyl]-2-{[1-(methylsulfonyl)piperidin-4-yl]amino}pyrido[2,3-d]pyrimidin-7(8H)-one] | 0.13 | 0.36
